Measured values published in patent US20240197729A1, “ALK-5 Inhibitors and Uses Thereof” (Sumitomo Pharma Oncology, Inc., priority 2021, published 2024).
Read-outs that look alike come from different tables or passages of the source.

Experiments:
[1] = tested on: TGF-β1-mediated αSMA expression; test: Fibroblast to myofibroblast transformation (FMT) assay; details: for IC50: Homo sapiens, Fibroblast; for inhibition of TGF-β1-mediated αSMA expression: all three IPF donors; for loss of nuclei: donor IPF03, highest test concentration (10 μM); for Potentially toxic concentration: lowest concentration with >25% loss of nuclei; for modulation of the number of nuclei: donors IPF06 and IPF08
Experimental: To test the ability of selected compounds to inhibit the TGF-β1-dependent transition of fibroblasts to myofibroblasts in a relevant disease model of IPF, an FMT assay was performed using lung fibroblasts from IPF patients. In this assay, the transition of fibroblasts to myofibroblasts is determined by the expression of the biomarker alpha smooth muscle actin (α-SMA).
Primary human bronchial fibroblasts derived from IPF patients were seeded on day zero and the media was refreshed on day two. On day five, selected compounds or controls were added at an eight-point concentration response curve starting at 10 μM (semi-log dilutions). Each drug concentration condition was evaluated in biological duplicates. […] Seventy-two hours following TGF-beta addition, the cells were fixed with formaldehyde. High content imaging evaluating cell number using the nuclear stain DAPI as well as the expression of a-SMA was performed. The following controls were run alongside the selected compounds: vactosertib and the approved IPF drug nintedanib (at an eight-point, semi-log curve with 10 μM starting concentration). As a negative control 0.1% DMSO was also used, matching the DMSO concentration in treated wells. The following calculations were used to determine cell number as well as percent inhibition (PIN) of alpha SMA expression:
• Segmentation and quantification of αSMA immunoreactivity by an HCA algorithm, with density×area (D×A) output • Data normalization of raw αSMA (D×A) to percentage inhibition (PIN) values, on a plate-to-plate basis
• DAPI fluorescence applied for HCA-based quantification of the number of imaged cells, on a plate-to-plate basis
[formula] • μn is the average numbers of nuclei of the vehicle control (TGF-β1+0.1% DMSO) • Xi is the compound number of nuclei

ALK5 = target: T1, ALK5 (Homo sapiens, UniProt P36897); test: LanthaScreen Eu Kinase Binding Assay, ALK5; details: 10-point titration, read-out: Kinase Inhibition: ALK5 IC50 (Lantha)
T1 sequence (P36897 34-503): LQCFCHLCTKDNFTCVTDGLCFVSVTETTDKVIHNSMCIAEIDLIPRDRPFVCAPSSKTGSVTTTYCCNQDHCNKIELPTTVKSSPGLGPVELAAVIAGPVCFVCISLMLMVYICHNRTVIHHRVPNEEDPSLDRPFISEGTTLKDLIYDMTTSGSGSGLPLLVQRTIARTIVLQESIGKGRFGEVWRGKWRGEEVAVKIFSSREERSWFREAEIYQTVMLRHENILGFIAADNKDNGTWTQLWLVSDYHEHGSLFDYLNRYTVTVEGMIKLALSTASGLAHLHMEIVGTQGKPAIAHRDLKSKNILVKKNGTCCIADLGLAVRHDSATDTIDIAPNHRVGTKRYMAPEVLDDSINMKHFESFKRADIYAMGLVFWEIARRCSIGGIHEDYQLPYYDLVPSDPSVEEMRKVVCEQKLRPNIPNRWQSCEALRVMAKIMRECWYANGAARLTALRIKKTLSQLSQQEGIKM
Experimental: Selected compounds of the present disclosure were assayed for inhibitory activity against ALK5 and ALK2. Activity determinations and selectivity were conducted by Thermo Fisher Scientific SelectScreen™ Biochemical Kinase Profiling Service using their LanthaScreen™ Eu Kinase Binding Assay Screening.
Binding of an Alexa Fluor™ conjugate or “tracer” to a kinase is detected by addition of a Eu-labeled anti-tag antibody. Binding of the tracer and antibody to a kinase results in a high degree of FRET, whereas displacement of the tracer with a kinase inhibitor results in a loss of FRET. This assay is carried out by mixing the compound tested with the reagents and reading; no development step is required.
Life Technologies' Kinase Tracers are based on ATP-competitive kinase inhibitors, making them suitable for detection of any compounds that bind to the ATP site. Inhibitors that bind the ATP site include both Type I kinase inhibitors, which bind solely to the ATP site, and Type II inhibitors (e.g., Gleevec®/Imatinib, Sorafenib, BIRB-796), which bind to both the ATP site and a second site often referred to as the allosteric site.
The test compounds were screened in 1% DMSO (final) in the well. For 10-point titrations, 3-fold serial dilutions were conducted from the starting concentration (see Table 2 below).
All Kinase/Antibody Mixtures were diluted to a 2× working concentration in the specified kinase buffer. The 4× AlexaFluor labeled Tracer was prepared in Kinase Buffer.
• Bar-coded, low volume, white, 384-well plate (Greiner Cat. #784207) • 1. 160 nL—100× Test Compound in 100% DMSO • 2. 3.84 μL—Kinase Buffer • 3. 8.0 μL—2× Kinase/Antibody Mixture • 4. 4.0 μL—4× Tracer • 5. 30-second plate shake • 6. 60-minute incubation at room temperature • 7. Read on fluorescence plate reader and analysis of the data
The following controls were made for each individual kinase and were located on the same plate as the kinase:
100% Displacement Control: The minimum Emission Ratio was established by the 100% Displacement Control wells, which contained the highest concentration of the known inhibitor used in that assay.
Known Inhibitor: A known inhibitor control standard curve, 10-point titration, was run for each individual kinase on the same plate as the kinase to ensure the inhibitor was displaced within an expected IC50 range previously determined.
The following equations were used for each set of data points: […]
Data generated were plotted using the graphing software XLfit from IDBS. The dose response curve was curve fit to model number 205.

[2] = read-out: Average IC50 (nM), average of donors IPF03, IPF06, IPF08
[3] = read-out: IC50 αSMA, donor IPF03
[4] = read-out: IC50 αSMA, donor IPF06
[5] = read-out: IC50 αSMA, donor IPF08
[6] = read-out: pIC50 αSMA, donor IPF03 (converted)
[7] = read-out: pIC50 αSMA, donor IPF06 (converted)
[8] = read-out: pIC50 αSMA, donor IPF08 (converted)

| Structure (SMILES) | IC50 [1, 2] [nM] | IC50 [1, 3] [nM] | IC50 [1, 4] [nM] | IC50 [1, 5] [nM] | IC50 [1, 6] [nM] | IC50 [1, 7] [nM] | IC50 [1, 8] [nM] | inhibition of TGF-β1-mediated αSMA expression [1] | Max PIN (%) ([1]; donor IPF03) | loss of nuclei [1] [%] | Potentially toxic concentration ([1]; donor IPF03) | Max PIN (%) ([1]; donor IPF06) | Max PIN (%) ([1]; donor IPF08) | modulation of the number of nuclei [1] | IC50 (ALK5) [nM] |
| --- | --- | --- | --- | --- | --- | --- | --- | --- | --- | --- | --- | --- | --- | --- | --- |
| Cc1nn(CC(F)(F)F)cc1Nc1cc(Nc2cnnc3c(C)cccc23)ccn1 [Compound 01, N2-[3-methyl-1-(2,2,2-trifluoroethyl)-1H-pyrazol-4-yl]-N4-(8-methylcinnolin-4-yl)pyridine-2,4-diamine] | 83.3 | 100 | 100 | 50 | 100 | 100 | 50.1 | full concentration-dependent inhibition | 106 | > 25 | 5.0 | 107 | 101 | No modulation of the number of nuclei was observed | ≤ 2 |
| Clc1cccc2c(Nc3ccnc(Nc4cccc(N5CCOCC5)c4)c3)cnnc12 [Compound 04, N4-(8-chlorocinnolin-4-yl)-N2-[3-(morpholin-4-yl)phenyl]pyridine-2,4-diamine] | 40 | 40 | 50 | 30 | 39.8 | 50.1 | 31.6 | full concentration-dependent inhibition | 107 | < 25 |  | 106 | 100 | No modulation of the number of nuclei was observed | 2 to 5 |
| Cc1cccc2c(Nc3ccnc(Nc4ccc(N5CCOCC5)cc4)c3)cnnc12 [Compound 05, N4-(8-methylcinnolin-4-yl)-N2-[4-(morpholin-4-yl)phenyl]pyridine-2,4-diamine] | 50 | 60 | 50 | 40 | 63.1 | 50.1 | 39.8 |  | 106 |  | 5.0 | 106 | 101 |  | 2 to 5 |
| Cc1cccc(-c2[nH]c(CNc3ccccc3F)nc2-c2ccc3ncnn3c2)n1 [Vactosertib, vactosertib, reference compound] | 38.3 | 50 | 40 | 25 | 50.1 | 39.8 | 25.1 |  | 105 |  |  | 104 | 102 |  |  |
